How the values were obtained:
Assay in all cases: Large panel kinase profiling
Format in all cases: biochemical
Details in all cases: 1 μM test article, 1 mM ATP
[1] = target: T1, BRSK2 (Homo sapiens, UniProt Q8IWQ3)
T1 sequence (Q8IWQ3 1-736): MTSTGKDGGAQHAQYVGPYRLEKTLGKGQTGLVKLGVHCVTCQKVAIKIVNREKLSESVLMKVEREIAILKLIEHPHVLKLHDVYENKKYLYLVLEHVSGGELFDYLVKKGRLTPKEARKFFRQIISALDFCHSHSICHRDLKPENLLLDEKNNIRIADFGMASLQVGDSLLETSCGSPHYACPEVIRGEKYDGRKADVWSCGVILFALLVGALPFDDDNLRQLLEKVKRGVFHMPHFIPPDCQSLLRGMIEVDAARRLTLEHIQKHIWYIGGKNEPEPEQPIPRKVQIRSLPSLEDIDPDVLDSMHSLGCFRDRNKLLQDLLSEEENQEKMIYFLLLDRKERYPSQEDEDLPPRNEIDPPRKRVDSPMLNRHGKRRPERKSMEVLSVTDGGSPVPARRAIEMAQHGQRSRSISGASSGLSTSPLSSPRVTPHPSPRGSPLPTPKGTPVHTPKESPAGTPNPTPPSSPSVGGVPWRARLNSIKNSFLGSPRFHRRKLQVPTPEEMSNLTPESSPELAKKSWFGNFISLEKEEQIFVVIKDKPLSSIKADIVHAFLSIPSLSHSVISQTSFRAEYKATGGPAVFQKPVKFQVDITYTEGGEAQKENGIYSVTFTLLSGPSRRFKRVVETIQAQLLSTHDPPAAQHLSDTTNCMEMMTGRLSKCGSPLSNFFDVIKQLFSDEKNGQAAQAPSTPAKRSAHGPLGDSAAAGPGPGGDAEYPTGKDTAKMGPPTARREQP
How it was run: (§1)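 Continuous-read kinase assay: chelation-sensor peptide, 1 mM ATP, compound at 1 μM. Plates kept at 30° C.; fluorescence sampled at 1-min intervals (360/485 nm).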

[2] = target: T2, CDK2/E1 (Homo sapiens, UniProt P24941)
T2 construct: AssayQuant Technologies, Inc. (ran the panel)
How it was run: as §1

[3] = target: T3, CDK3/E1 (Homo sapiens, UniProt Q00526)
T3 construct: AssayQuant Technologies, Inc. (ran the panel)
How it was run: as §1

[4] = target: T4, CDK6/D3 (Homo sapiens, UniProt Q00534)
T4 construct: AssayQuant Technologies, Inc. (ran the panel)
T4 sequence (Q00534 whole entry, species assumed): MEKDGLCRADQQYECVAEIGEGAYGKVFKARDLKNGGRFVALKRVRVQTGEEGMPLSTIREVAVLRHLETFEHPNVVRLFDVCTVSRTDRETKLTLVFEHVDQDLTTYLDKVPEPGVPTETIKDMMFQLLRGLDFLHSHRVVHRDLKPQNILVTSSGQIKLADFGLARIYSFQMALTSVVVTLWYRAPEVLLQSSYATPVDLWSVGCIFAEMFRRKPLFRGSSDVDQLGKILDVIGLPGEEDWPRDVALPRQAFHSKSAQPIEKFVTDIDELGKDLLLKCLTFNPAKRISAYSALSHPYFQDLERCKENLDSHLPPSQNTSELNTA
T4 sequence (P30281 whole entry partner, species assumed): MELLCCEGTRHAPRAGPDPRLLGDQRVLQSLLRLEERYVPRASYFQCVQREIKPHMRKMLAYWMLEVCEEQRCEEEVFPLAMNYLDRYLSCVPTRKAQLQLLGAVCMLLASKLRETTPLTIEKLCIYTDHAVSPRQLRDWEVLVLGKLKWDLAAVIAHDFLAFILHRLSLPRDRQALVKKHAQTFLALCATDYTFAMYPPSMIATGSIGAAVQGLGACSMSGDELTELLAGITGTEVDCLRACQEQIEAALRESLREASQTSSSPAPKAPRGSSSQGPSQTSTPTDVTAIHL
How it was run: as §1

[5] = target: T5, HIPK1 (Homo sapiens, UniProt Q86Z02)
T5 construct: AssayQuant Technologies, Inc. (service provider)
T5 sequence (Q86Z02 whole entry, species assumed): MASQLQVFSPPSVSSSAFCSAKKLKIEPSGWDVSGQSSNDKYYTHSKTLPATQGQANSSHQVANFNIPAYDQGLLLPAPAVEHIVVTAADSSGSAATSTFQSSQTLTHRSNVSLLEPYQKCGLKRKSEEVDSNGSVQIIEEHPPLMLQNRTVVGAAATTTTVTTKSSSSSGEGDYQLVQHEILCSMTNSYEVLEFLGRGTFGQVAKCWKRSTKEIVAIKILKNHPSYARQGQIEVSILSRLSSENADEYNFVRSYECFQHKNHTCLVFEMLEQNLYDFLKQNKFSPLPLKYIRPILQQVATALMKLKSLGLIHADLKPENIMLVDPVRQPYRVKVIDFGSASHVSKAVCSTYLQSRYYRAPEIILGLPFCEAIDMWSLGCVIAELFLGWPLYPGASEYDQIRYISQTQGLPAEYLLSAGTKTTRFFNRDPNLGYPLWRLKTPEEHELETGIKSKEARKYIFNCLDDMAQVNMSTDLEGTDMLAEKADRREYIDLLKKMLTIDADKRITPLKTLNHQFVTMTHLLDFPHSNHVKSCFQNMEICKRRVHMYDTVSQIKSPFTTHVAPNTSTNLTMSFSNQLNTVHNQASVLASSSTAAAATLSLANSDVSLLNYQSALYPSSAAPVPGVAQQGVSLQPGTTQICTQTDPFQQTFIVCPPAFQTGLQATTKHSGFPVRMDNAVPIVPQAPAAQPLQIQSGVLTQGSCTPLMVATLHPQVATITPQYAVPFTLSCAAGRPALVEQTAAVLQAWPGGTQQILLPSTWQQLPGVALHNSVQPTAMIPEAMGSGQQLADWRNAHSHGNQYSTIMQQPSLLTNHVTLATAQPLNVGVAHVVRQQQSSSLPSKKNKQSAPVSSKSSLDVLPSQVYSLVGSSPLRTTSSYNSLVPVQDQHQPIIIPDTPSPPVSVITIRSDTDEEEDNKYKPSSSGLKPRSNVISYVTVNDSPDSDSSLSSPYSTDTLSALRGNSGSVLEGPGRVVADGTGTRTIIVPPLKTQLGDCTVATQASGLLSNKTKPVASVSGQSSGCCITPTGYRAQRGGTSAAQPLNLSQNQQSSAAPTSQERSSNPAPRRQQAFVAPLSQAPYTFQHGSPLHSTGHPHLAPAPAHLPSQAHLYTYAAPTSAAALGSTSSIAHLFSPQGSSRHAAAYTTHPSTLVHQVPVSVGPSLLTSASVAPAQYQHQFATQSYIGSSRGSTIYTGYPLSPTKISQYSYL
How it was run: as §1

[6] = target: LRRK2 (Homo sapiens, UniProt Q5S007)
How it was run: as §1

[7] = target: T6, MARK4 (Homo sapiens, UniProt Q96L34)
T6 construct: AssayQuant Technologies, Inc. (assay service)
T6 sequence (Q96L34 1-752): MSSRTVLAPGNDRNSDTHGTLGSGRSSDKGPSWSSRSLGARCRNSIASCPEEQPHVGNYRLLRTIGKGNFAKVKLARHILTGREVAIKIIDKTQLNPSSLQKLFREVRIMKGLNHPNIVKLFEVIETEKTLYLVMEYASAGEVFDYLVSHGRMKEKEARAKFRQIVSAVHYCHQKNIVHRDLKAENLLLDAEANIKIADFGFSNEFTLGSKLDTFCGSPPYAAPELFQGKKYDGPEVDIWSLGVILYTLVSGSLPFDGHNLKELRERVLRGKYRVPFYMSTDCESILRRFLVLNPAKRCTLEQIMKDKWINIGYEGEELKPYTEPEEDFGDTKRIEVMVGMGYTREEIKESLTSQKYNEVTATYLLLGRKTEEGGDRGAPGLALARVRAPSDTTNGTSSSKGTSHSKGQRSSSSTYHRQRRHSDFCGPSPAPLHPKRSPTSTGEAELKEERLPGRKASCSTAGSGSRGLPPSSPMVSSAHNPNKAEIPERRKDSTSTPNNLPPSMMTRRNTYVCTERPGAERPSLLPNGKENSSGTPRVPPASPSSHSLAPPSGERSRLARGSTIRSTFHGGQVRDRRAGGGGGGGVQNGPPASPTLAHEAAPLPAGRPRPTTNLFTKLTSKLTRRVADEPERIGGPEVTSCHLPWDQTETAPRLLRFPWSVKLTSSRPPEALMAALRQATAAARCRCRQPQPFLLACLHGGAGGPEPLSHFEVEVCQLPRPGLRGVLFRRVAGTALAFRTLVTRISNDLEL
How it was run: as §1

[8] = target: PRKDC/DNA-PK (Homo sapiens, UniProt P78527)
How it was run: as §1

[9] = target: ROCK1 (Homo sapiens, UniProt Q13464)
Sequence of ROCK1 (Q13464 whole entry, species assumed): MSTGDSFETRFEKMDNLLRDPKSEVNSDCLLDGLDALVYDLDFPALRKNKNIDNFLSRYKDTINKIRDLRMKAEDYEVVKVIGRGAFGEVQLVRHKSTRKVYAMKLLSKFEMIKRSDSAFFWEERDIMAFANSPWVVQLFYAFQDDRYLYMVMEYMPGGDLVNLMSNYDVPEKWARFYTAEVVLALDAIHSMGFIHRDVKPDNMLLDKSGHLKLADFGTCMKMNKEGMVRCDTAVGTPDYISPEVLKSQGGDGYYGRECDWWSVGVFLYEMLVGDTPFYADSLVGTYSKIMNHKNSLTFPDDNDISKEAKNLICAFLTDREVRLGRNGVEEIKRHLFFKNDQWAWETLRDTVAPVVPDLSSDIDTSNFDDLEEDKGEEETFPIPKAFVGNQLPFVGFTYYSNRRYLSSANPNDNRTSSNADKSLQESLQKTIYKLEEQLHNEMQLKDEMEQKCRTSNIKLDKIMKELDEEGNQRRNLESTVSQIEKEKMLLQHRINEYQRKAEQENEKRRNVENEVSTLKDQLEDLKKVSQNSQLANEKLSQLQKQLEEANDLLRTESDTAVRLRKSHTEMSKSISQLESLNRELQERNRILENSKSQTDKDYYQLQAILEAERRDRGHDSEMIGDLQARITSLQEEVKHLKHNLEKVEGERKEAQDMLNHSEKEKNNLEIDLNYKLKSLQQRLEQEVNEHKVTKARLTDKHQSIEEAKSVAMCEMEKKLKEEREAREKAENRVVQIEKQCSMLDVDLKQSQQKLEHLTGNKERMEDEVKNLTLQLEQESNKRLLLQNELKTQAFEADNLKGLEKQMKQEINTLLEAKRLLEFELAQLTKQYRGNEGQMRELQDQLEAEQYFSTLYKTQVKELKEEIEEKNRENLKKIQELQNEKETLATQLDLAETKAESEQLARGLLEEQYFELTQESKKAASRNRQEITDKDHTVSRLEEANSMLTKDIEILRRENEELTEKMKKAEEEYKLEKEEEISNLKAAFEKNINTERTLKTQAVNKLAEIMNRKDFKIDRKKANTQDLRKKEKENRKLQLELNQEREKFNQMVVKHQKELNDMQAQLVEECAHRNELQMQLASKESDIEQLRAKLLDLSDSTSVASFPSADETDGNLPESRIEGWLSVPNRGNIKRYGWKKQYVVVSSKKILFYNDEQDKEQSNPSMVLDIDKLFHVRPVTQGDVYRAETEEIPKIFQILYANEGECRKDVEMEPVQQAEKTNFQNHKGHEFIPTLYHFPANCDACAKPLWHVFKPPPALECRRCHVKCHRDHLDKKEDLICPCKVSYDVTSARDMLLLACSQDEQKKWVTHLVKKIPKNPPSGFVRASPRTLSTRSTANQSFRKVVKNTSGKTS
How it was run: as §1

[10] = target: T7, SK2 (Homo sapiens, UniProt Q9H0K1)
T7 construct: AssayQuant Technologies, Inc. (contract assay)
T7 sequence (Q9H0K1 whole entry): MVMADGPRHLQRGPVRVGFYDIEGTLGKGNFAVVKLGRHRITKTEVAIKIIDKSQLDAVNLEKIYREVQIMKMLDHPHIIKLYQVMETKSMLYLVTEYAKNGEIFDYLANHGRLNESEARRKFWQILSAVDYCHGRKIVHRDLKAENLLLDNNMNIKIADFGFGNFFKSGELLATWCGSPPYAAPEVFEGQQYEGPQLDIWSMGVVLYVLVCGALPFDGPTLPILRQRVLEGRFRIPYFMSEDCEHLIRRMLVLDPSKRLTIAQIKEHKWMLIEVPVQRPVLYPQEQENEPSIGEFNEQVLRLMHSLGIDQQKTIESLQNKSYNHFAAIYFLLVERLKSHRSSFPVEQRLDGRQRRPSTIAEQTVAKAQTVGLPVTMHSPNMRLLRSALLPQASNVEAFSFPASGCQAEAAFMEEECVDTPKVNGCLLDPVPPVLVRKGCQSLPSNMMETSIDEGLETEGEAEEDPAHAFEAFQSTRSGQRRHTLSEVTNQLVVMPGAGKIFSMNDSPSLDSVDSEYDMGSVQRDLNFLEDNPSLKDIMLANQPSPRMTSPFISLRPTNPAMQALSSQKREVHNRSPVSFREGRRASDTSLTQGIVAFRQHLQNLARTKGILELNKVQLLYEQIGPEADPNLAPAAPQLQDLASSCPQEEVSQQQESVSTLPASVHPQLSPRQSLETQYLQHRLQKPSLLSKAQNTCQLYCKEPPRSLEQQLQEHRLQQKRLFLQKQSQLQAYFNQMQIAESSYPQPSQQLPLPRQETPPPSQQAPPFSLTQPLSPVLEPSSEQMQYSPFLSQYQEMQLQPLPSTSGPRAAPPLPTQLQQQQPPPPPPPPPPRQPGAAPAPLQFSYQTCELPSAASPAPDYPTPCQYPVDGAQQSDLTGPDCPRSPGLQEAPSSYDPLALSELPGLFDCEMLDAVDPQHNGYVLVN
How it was run: as §1

Row | Structure (SMILES) | inhibition at 1 µM [1] [%] | inhibition at 1 µM [2] [%] | inhibition at 1 µM [3] [%] | inhibition at 1 µM [4] [%] | inhibition at 1 µM [5] [%] | inhibition at 1 µM [6] [%] | inhibition at 1 µM [7] [%] | inhibition at 1 µM [8] [%] | inhibition at 1 µM [9] [%] | inhibition at 1 µM [10] [%]
1 | C=CC(=O)N1CCCC(c2c(F)cc(C(N)=O)c3[nH]c4c(c23)CCCCC4)C1 (single isomer, unassigned) [Compound 5-6] | -31.2 | -7.3 | -15.3 | -8 | 6.6 | -8.9 | 8.1 | -40.6 | 3.5 | -0.1
2 | C=CC(=O)N1CCC[C@@H](c2c(F)cc(C(N)=O)c3[nH]c4c(c23)CC2(CC4)CC2)C1 [Compound 6-2, (S)-5-(1-acryloylpiperidin-3-yl)-6-fluoro-1,2,4,9-tetrahydrospiro[carbazole-3,1′-cyclopropane]-8-carboxamide] | -5.7 | -12.9 | 13.7 | -6.1 | 41.1 | -2.7 | -10.2 | 35 | 2.5 | 7.7
3 | C=CC(=O)N1CCC[C@@H](c2c(F)cc(C(N)=O)c3[nH]c4c(c23)CCC4)C1 [Compound 10-2, (S)-8-(1-acryloylpiperidin-3-yl)-7-fluoro-1,2,3,4-tetrahydrocyclo-penta[b]indole-5-carboxamide] | 1.8 | 7 | -7.7 | -18.4 | 33.6 | -7.2 | 1.7 | 14.6 | 13.7 | 23.9

— patent publication US20220009920A1 (GB005, Inc., priority 2020, published 2022)
